Reference: patent US9717733B2, “Edible plant-derived microvesicle compositions including conjugated therapeutic agents and methods for using the same” (priority 2014, dated 2017)

Experiments:
[1] = system: DSS-induced colitis in mice; assay: DSS-induced colitis, therapeutic effect of GMTX; type: in vivo, mouse; settings: 5 mg/kg oral on day 3, 5 and 6 of DSS
Protocol: Colitis was induced in mice by addition of 2% (wt/vol) DSS (MW 36-50 KD molecular weight, MP Biomedicals, OH) in their drinking water for the duration of the study. DSS solution was freshly prepared every other day. Body weight and physical activity were monitored daily. To test the protective effect of GDNs, mice fasted for 4 h were orally given either PBS or 10 mg/kg of GDNs daily for 7 days and then treated with 2% DSS in drinking water for 7 days to induce colitis with continued administration of GDNs. To test the therapeutic effect of GMTX, colitis was first induced in mice by providing 2% DSS in their drinking water. On day 3, 5 and 6 of DSS-induced colitis, mice were treated with free MTX (5 mg/kg body weight) or GMTX (MTX equaled to 5 mg/kg) by oral administration. […]
For histopathology, tissues were fixed in 10% neutral formalin and then embedded in paraffin. […] Histological examination was performed in a blinded fashion and the severity of colitis was scored as described previously. […] E-cadherin and F4/80 binding was detected by Alexa Fluor 488 conjugated goat anti-mouse IgG or goat anti-rat IgG (1:600, Invitrogen), respectively. […]
To assess the local levels of IL-6, IL-1β, TNF-α, organ cultures were generated from naïve, GDN, PBS/DSS and GDN/DSS challenged mice. […] The local levels of PGE2 were determined by a PGE2-specific EIA (Cayman Chemical, Ann Arbor, Mich.) as described previously. […]

[2] = system: Raw264.7 macrophages; assay: Internalization assay (GDN uptake with endocytosis inhibitors); type: cell-based, mouse; settings: 30 min pretreatment: 50 μM amiloride, 12.5 μM chlorpromazine or 100 μM indomethacin; 2 μg/ml PKH26-labeled GDNs, 3 h
Protocol: Macrophages were plated on Lab-Tek chamber slide (Sigma) and incubated for 24 h in growth medium. Before the uptake assay, GDNs were labeled with PKH26, sucrose gradient purified and diluted in PBS. Uptake was performed by incubating cell cultures with 2 μg/ml of GDNs for 3 h in a humid chamber (37° C., 5% CO2). For inhibition experiments, cell cultures were pre-incubated with individual inhibitors for 30 min before performing the uptake experiments.

SMILES | symptoms of colitis vs PBS treated mice (colon tissue damage, colon length reduction, E-cadherin expression) [1] | inhibition of GDN uptake [2]
CN(Cc1cnc2nc(N)nc(N)c2n1)c1ccc(C(=O)N[C@@H](CCC(=O)O)C(=O)O)cc1 [free MTX, methotrexate] | aggravated symptoms of colitis | –
COc1ccc2c(c1)c(CC(=O)O)c(C)n2C(=O)c1ccc(Cl)cc1 [indomethacin] | – | did not significantly alter
